Experimental data taken from publication PMC9486805, “Identification of a Phage Display-Derived Peptide Interacting with the N-Terminal Region of Factor VII Activating Protease (FSAP) Enables Characterization of Zymogen Activation” (ACS Chemical Biology, 2022).

Experiments:
[1] = system: ΔNTR mutant; test: Binding of biotinylated peptides to captured ΔNTR mutant; set-up: species or system human; settings: peptide 1 μM; triplicate wells (Fig 2E)
Method: (§1) Figure 2 NNKC9/41 interacts with the NTR of pro-FSAP: (A) To determine peptide binding to pro-FSAP, wells were coated with 2 μg/mL pro-FSAP and biotinylated NNKC9/41 and NNK11/189 and their respective scrambled controls were added in different concentration (0–5 μM). Peroxidase-labeled streptavidin was used to detect peptide binding. (B) Same procedure as in (A) except that different proteins were immobilized and biotinylated NNKC9/41 (0–30 μM) was added and its binding was measured. (C) Schematic structure of pro-FSAP with the heavy chain consisting of an NTR, three EGF domains, and a kringle domain, followed by the light chain harboring the serine protease domain (SPD). The binding domains of antibodies used in this study are indicated. (D) Recombinant complete heavy chain (heavy) and truncated heavy chain variants ΔNTR, ΔEGF1, ΔEGF2, ΔEGF3, and ΔKringle were expressed in bacteria and analyzed by sodium dodecyl sulfate poly(acrylamide) gel electrophoresis (SDS-PAGE) followed by Coomassie staining. […] Biotinylated NNKC9/41 or the scrambled control peptide was added at 1 μM and peptide binding was measured with peroxidase-linked streptavidin. […]
(§2) Wells were coated with anti-FSAP polyclonal antibodies (5 μg/mL). […] Subsequently, the plates were washed, and bound peptides were detected with peroxidase-coupled streptavidin. […]

[2] = system: FSAP heavy chain; test: Binding of biotinylated peptides to captured recombinant FSAP heavy chain; set-up: species or system human; settings: peptide 1 μM; triplicate wells (Fig 2E)
Method: as §1, §2

[3] = system: plasminogen; test: Specificity towards pro-enzymes: plasminogen; format: biochemical; settings: plasminogen 50 nM; peptide 0-50 μM; CS41; duplicates, 3 experiments (Fig S7)
Method: Fig S7. […]
(§3) Bend, IN, USA) except plasminogen and FSAP, which were isolated in house; and pro-uPA was from Grünenthal (Stolberg, Germany). All chromogenic substrates were from Hyphen Biomed (Neuville Sur Oise, France). Experiments were carried out in TBS with Tween-20 (0.1 % wt/ vol) BSA (0.3% wt/vol) and CaCl2 (2 mM). Absorbance at 405 nm was measured over time and the enzyme activity is depicted was measured in duplicates (mean + or -range) and similar results were obtained in 3

[4] = system: plasmin; test: Specificity: plasmin; format: biochemical; settings: plasmin 20 nM; peptide 0-50 μM; CS41 (Fig S7)
Method: Fig S7. […]
as §3

[5] = system: pro-FSAP in WT/WT plasma; test: Substrate turnover in WT/WT plasma; format: biochemical, human; settings: WT/WT citrate plasma 1:12; 25 μM (Fig 6A)
Method: Figure 6 Pro-FSAP activation and clotting in plasma by NNKC9/41: (A) citrate plasma (1:12 dilution) from donors with WT/WT, WT/MI, and MI/MI genotypes and WT-FSAP-deficient plasma (FSAP-DP) were compared. Substrate turnover was monitored after addition of NNKC9/41 or the Ser–Ser linear peptide (25 μM each). Results are shown as mean + range of duplicate wells. (B) Pooled prothrombin-deficient citrated plasma (1:5 dilution) was recalcified with 10 mM CaCl2 and incubated with NNKC9/41 or scrambled control peptide (0–25 μM each) for 60 min at 37 °C in the presence or absence of the FSAP-inhibitory MA-FSAP-38C7 (5 μg/mL). Initiation of clotting was achieved by adding the tissue factor/phospholipid and prothrombin complex concentrate. Clotting time was measured as diluted prothrombin time (dPT) in seconds. Data are the mean of three independent experiments. The relative dPT in % of the untreated control is presented as mean ± standard error (SE) (*p <0.05, two-way analysis of variance (ANOVA) and Bonferroni post-test).
Human citrate plasma (0.38% w/v) or hirudin plasma (25 μg/mL Lepirudin) was obtained from five healthy donors. […] Hydrolysis of the fluorogenic substrates was measured using a Synergy HI plate reader with excitation at 320 nm and emission at 460 nm at 37 °C for 60 min. The maximal velocity was calculated from the linear part of the progress curve. […]

## CRGAMWMYKRC [NNKC9/41]
[1]
  peptide binding to ΔNTR mutant: very low binding
[2]
  peptide binding to heavy chain: high binding
[3]
  effect on activity: did not influence the activity
[4]
  effect on activity: did not influence the activity
[5]
  substrate turnover: high substrate turnover
